Assay results: patent US7271147B2, “Antibiotics, tripropeptins and process for producing the same” (Zaidan Hojin Biseibutsu Kagaku Kenkyu Kai, priority 2000, dated 2007)
In brackets after ≈: the same amount, converted by molar mass. Where two headings read alike, the source gives them in different places. Starred links: 1 amine or outer side, 2 acyl side, 3 side chain; linkers in the order of their positions; H or OH if unused. Positions of bridges follow the written chain, without caps; N, C: chain ends. Non-standard residues stand in square brackets, D forms with d. Residues, ends and D or L forms follow the SMILES beside them. ξ: configuration not given here. X4 = CC(C)CCCCCCCCCCC(CC(=O)[*:1])O[*:2]; X2 = CC(C)CCCCCCCCCC(CC(=O)[*:1])O[*:2]; X6 = CC(C)CCCCCCCCC(CC(=O)[*:1])O[*:2]; X5 = CC(C)CCCCCCCC(CC(=O)[*:1])O[*:2]; X3 = CC(C)CCCCCCC(CC(=O)[*:1])O[*:2]; ξAsp(3ξ-OH) = NC(C(=O)O)C(O)C(=O)O; X1 = O=C(C1C(O)CCN1[*:1])[*:2]

Assays:
[1] = system: Corynebacterium bovis 1810; assay: Minimum growth inhibitory concentration, agar serial dilution; type: cell-based; settings: Mueller-Hinton agar
[2] = system: Klebsiella pneumoniae PCI602; assay: as above; type: cell-based; settings: Mueller-Hinton agar
Salmonella typhi T-63 = assay: as above; type: cell-based; settings: Salmonella enterica, Mueller-Hinton agar
Shigella sonnei JS11746 = assay: as above; type: cell-based; settings: Mueller-Hinton agar
Experimental: (§1) Minimum growth inhibitory concentrations (μg/ml) of tripropeptin Z against a variety of microorganisms were measured on a Mueller-Hinton agar medium (manufactured by Difco Laboratories) or on a 5% sheep blood-supplemented Mueller-Hinton agar medium (manufactured by Difco Laboratories) for Enterococcus, by a serial dilution method according to the standard method as provided by Japanese Society of Chemotherapy.
as §1, with “A” for “Z”
as §1, with “B” for “Z”
as §1, with “C” for “Z”
as §1, with “D” for “Z”

[3] = system: Staphylococcus aureus MS16460 (methicillin-resistant); assay: as above; type: cell-based; settings: read-out: Minimum growth inhibitory concentration
[4] = system: Enterococcus faecium NCTC 12204 (vancomycin-resistant); assay: as above; type: cell-based; settings: NCTC12204, 5% sheep blood-supplemented Mueller-Hinton agar
[5] = system: Staphylococcus aureus MS16526 (methicillin-resistant); assay: as above; type: cell-based; settings: Mueller-Hinton agar
[6] = system: Staphylococcus aureus TY-03456 (methicillin-resistant); assay: as above; type: cell-based; settings: read-out: Minimum growth inhibitory concentration
[7] = system: Enterococcus faecium JCM5804; assay: as above; type: cell-based; settings: 5% sheep blood-supplemented Mueller-Hinton agar
[8] = system: Staphylococcus aureus MS16497 (methicillin-resistant); assay: as above; type: cell-based; settings: Mueller-Hinton agar
[9] = system: Staphylococcus aureus FDA209P; assay: as above; type: cell-based; settings: Mueller-Hinton agar
[10] = system: Bacillus cereus ATCC10702; assay: as above; type: cell-based
Bacillus anthracis = assay: microbe, parasite or virus in culture; type: cell-based; settings: read-out: Minimum growth inhibitory concentration
[11] = system: Staphylococcus aureus TY-00933 (methicillin-resistant); assay: Minimum growth inhibitory concentration, agar serial dilution; type: cell-based; settings: read-out: Minimum growth inhibitory concentration
Bacillus subtilis PCI219 = assay: as above; type: cell-based; settings: Mueller-Hinton agar
[12] = system: Enterococcus faecalis NCTC 12201 (vancomycin-resistant); assay: as above; type: cell-based; settings: NCTC12201, 5% sheep blood-supplemented Mueller-Hinton agar
[13] = system: Enterococcus faecalis NCTC 12203 (vancomycin-resistant); assay: as above; type: cell-based; settings: NCTC12203, 5% sheep blood-supplemented Mueller-Hinton agar
[14] = system: Staphylococcus aureus Smith; assay: as above; type: cell-based; settings: Mueller-Hinton agar
[15] = system: Staphylococcus aureus MS9610 (multi-drug-resistant); assay: as above; type: cell-based; settings: Mueller-Hinton agar
[16] = system: Staphylococcus aureus TY-03454 (methicillin-resistant); assay: as above; type: cell-based; settings: Mueller-Hinton agar
Micrococcus luteus FDA16 = assay: as above; type: cell-based; settings: Mueller-Hinton agar
[17] = system: Enterococcus faecium NCTC 12202 (vancomycin-resistant); assay: as above; type: cell-based; settings: NCTC12202, 5% sheep blood-supplemented Mueller-Hinton agar
[18] = system: Staphylococcus aureus TY-04282 (methicillin-resistant); assay: as above; type: cell-based; settings: Mueller-Hinton agar
[19] = system: Enterococcus faecalis JCM5803; assay: as above; type: cell-based; settings: 5% sheep blood-supplemented Mueller-Hinton agar
[20] = system: mice (ICR type, 4 weeks-aged, male); settings: mouse, in vivo, iv, 300 mg/kg
From the text: However, an optimal dose of a tripropeptin can be decided by experts through suitable preliminary tests.

[21] = Staphylococcus aureus MS16460 (methicillin-resistant), Mueller-Hinton agar
[22] = Staphylococcus aureus TY-03456 (methicillin-resistant), Mueller-Hinton agar
[23] = Bacillus cereus ATCC10702, Mueller-Hinton agar, read-out: Minimum growth inhibitory concentration
[24] = Staphylococcus aureus TY-00933 (methicillin-resistant), Mueller-Hinton agar
[25] = Bacillus cereus, ATCC10702, read-out: Minimum growth inhibitory concentration

SMILES	MIC [1]	MIC [2]	MIC (Salmonella typhi T-63)	MIC (Shigella sonnei JS11746)	MIC [4]	MIC [5]	MIC [7]	MIC [8]	MIC [9]	MIC (Bacillus anthracis)	MIC (Bacillus subtilis PCI219)	MIC [12]	MIC [13]	MIC [14]	MIC [15]	MIC [16]	MIC (Micrococcus luteus FDA16)	MIC [17]	MIC [18]	MIC [19]	further results
CC(C)CCCCCCCC1CC(=O)NC(C(C)O)C(=O)N2CCCC2C(=O)N2CCCC2C(=O)NC(CCCNC(=N)N)C(=O)NC(C(O)C(=O)O)C(=O)NC(CO)C(=O)N2CCC(O)C2C(=O)NC(C(O)C(=O)O)C(=O)O1 (stereo not shown) [Tripropeptin A] (TPPR[ξAsp(3ξ-OH)]S[X1][ξAsp(3ξ-OH)]; linker N-C via X5; configuration not given here)	1.56 µg/mL (≈ 1.39 µM)	> 50 µg/mL	> 50 µg/mL	> 100 µg/mL	50 µg/mL (≈ 44.4 µM)	3.13 µg/mL (≈ 2.78 µM)	50 µg/mL (≈ 44.4 µM)	6.25 µg/mL (≈ 5.55 µM)	1.56 µg/mL (≈ 1.39 µM)	25 µg/mL (≈ 22.2 µM)	3.13 µg/mL (≈ 2.78 µM)	50 µg/mL (≈ 44.4 µM)	50 µg/mL (≈ 44.4 µM)	0.78 µg/mL (≈ 0.693 µM)	6.25 µg/mL (≈ 5.55 µM)	6.25 µg/mL (≈ 5.55 µM)	< 0.39 µg/mL	50 µg/mL (≈ 44.4 µM)	6.25 µg/mL (≈ 5.55 µM)	50 µg/mL (≈ 44.4 µM)	MIC [3, 21]: 6.25 µg/mL (≈ 5.55 µM); MIC [6, 22]: 6.25 µg/mL (≈ 5.55 µM); MIC [10, 23]: 12.3 µg/mL (≈ 10.9 µM); MIC [11, 24]: 6.25 µg/mL (≈ 5.55 µM)
CC(C)CCCCCCCCC1CC(=O)NC(C(C)O)C(=O)N2CCCC2C(=O)N2CCCC2C(=O)NC(CCCNC(=N)N)C(=O)NC(C(O)C(=O)O)C(=O)NC(CO)C(=O)N2CCC(O)C2C(=O)NC(C(O)C(=O)O)C(=O)O1 (stereo not shown) [Tripropeptin B] (TPPR[ξAsp(3ξ-OH)]S[X1][ξAsp(3ξ-OH)]; linker N-C via X6; configuration not given here)	0.78 µg/mL (≈ 0.684 µM)	> 100 µg/mL	> 100 µg/mL	> 100 µg/mL	25 µg/mL (≈ 21.9 µM)	3.13 µg/mL (≈ 2.74 µM)	25 µg/mL (≈ 21.9 µM)	3.13 µg/mL (≈ 2.74 µM)	1.56 µg/mL (≈ 1.37 µM)	6.25 µg/mL (≈ 5.48 µM)	1.56 µg/mL (≈ 1.37 µM)	12.5 µg/mL (≈ 11 µM)	50 µg/mL (≈ 43.8 µM)	1.56 µg/mL (≈ 1.37 µM)	3.13 µg/mL (≈ 2.74 µM)	3.13 µg/mL (≈ 2.74 µM)	0.2 µg/mL (≈ 0.175 µM)	25 µg/mL (≈ 21.9 µM)	3.13 µg/mL (≈ 2.74 µM)	25 µg/mL (≈ 21.9 µM)	MIC ([3]; Staphylococcus aureus): 6.25 µg/mL (≈ 5.48 µM); MIC [6, 22]: 3.13 µg/mL (≈ 2.74 µM); MIC [10, 23]: > 100 µg/mL; MIC [11, 24]: 3.13 µg/mL (≈ 2.74 µM)
CC(C)CCCCCCCCCC1CC(=O)NC(C(C)O)C(=O)N2CCCC2C(=O)N2CCCC2C(=O)NC(CCCNC(=N)N)C(=O)NC(C(O)C(=O)O)C(=O)NC(CO)C(=O)N2CCC(O)C2C(=O)NC(C(O)C(=O)O)C(=O)O1 (stereo not shown) [Tripropeptin C] (TPPR[ξAsp(3ξ-OH)]S[X1][ξAsp(3ξ-OH)]; linker N-C via X2; configuration not given here)	0.39 µg/mL (≈ 0.338 µM)	> 100 µg/mL	> 100 µg/mL	> 100 µg/mL	12.5 µg/mL (≈ 10.8 µM)	1.56 µg/mL (≈ 1.35 µM)	12.5 µg/mL (≈ 10.8 µM)	1.56 µg/mL (≈ 1.35 µM)	1.56 µg/mL (≈ 1.35 µM)	3.13 µg/mL (≈ 2.71 µM)	1.56 µg/mL (≈ 1.35 µM)	6.25 µg/mL (≈ 5.41 µM)	25 µg/mL (≈ 21.7 µM)	1.56 µg/mL (≈ 1.35 µM)	1.56 µg/mL (≈ 1.35 µM)	1.56 µg/mL (≈ 1.35 µM)	0.2 µg/mL (≈ 0.173 µM)	12.5 µg/mL (≈ 10.8 µM)	1.56 µg/mL (≈ 1.35 µM)	12.5 µg/mL (≈ 10.8 µM)	MIC ([3]; Staphylococcus aureus): 3.13 µg/mL (≈ 2.71 µM); MIC ([6]; Staphylococcus aureus): 3.13 µg/mL (≈ 2.71 µM); MIC [10, 25]: 3.13 µg/mL (≈ 2.71 µM); MIC ([11]; Staphylococcus aureus): 3.13 µg/mL (≈ 2.71 µM); Toxicity [20]: did not exhibit any toxicity
CC(C)CCCCCCCCCCC1CC(=O)NC(C(C)O)C(=O)N2CCCC2C(=O)N2CCCC2C(=O)NC(CCCNC(=N)N)C(=O)NC(C(O)C(=O)O)C(=O)NC(CO)C(=O)N2CCC(O)C2C(=O)NC(C(O)C(=O)O)C(=O)O1 (stereo not shown) [Tripropeptin D] (TPPR[ξAsp(3ξ-OH)]S[X1][ξAsp(3ξ-OH)]; linker N-C via X4; configuration not given here)	0.2 µg/mL (≈ 0.171 µM)	> 100 µg/mL	> 100 µg/mL	> 100 µg/mL	6.25 µg/mL (≈ 5.35 µM)	0.78 µg/mL (≈ 0.668 µM)	6.25 µg/mL (≈ 5.35 µM)	0.78 µg/mL (≈ 0.668 µM)	0.39 µg/mL (≈ 0.334 µM)	1.56 µg/mL (≈ 1.34 µM)	0.78 µg/mL (≈ 0.668 µM)	3.13 µg/mL (≈ 2.68 µM)	6.25 µg/mL (≈ 5.35 µM)	0.39 µg/mL (≈ 0.334 µM)	0.78 µg/mL (≈ 0.668 µM)	0.78 µg/mL (≈ 0.668 µM)	0.2 µg/mL (≈ 0.171 µM)	6.25 µg/mL (≈ 5.35 µM)	0.78 µg/mL (≈ 0.668 µM)	3.13 µg/mL (≈ 2.68 µM)	MIC ([3]; Staphylococcus aureus): 1.56 µg/mL (≈ 1.34 µM); MIC [6, 22]: 0.78 µg/mL (≈ 0.668 µM); MIC [10, 25]: 1.56 µg/mL (≈ 1.34 µM); MIC [11, 24]: 0.78 µg/mL (≈ 0.668 µM)
CC(C)CCCCCCC1CC(=O)NC(C(C)O)C(=O)N2CCCC2C(=O)N2CCCC2C(=O)NC(CCCNC(=N)N)C(=O)NC(C(O)C(=O)O)C(=O)NC(CO)C(=O)N2CCC(O)C2C(=O)NC(C(O)C(=O)O)C(=O)O1 (stereo not shown) [Tripropeptin Z] (TPPR[ξAsp(3ξ-OH)]S[X1][ξAsp(3ξ-OH)]; linker N-C via X3; configuration not given here)	6.25 µg/mL (≈ 5.62 µM)	> 50 µg/mL	> 50 µg/mL	> 100 µg/mL	> 100 µg/mL	25 µg/mL (≈ 22.5 µM)	> 100 µg/mL	25 µg/mL (≈ 22.5 µM)	12.5 µg/mL (≈ 11.2 µM)	100 µg/mL (≈ 89.9 µM)	25 µg/mL (≈ 22.5 µM)	100 µg/mL (≈ 89.9 µM)	> 100 µg/mL	6.25 µg/mL (≈ 5.62 µM)	25 µg/mL (≈ 22.5 µM)	25 µg/mL (≈ 22.5 µM)	< 0.39 µg/mL	> 100 µg/mL	25 µg/mL (≈ 22.5 µM)	100 µg/mL (≈ 89.9 µM)	MIC [3, 21]: 50 µg/mL (≈ 45 µM); MIC [6, 22]: 25 µg/mL (≈ 22.5 µM); MIC [10, 23]: > 50 µg/mL; MIC [11, 24]: 25 µg/mL (≈ 22.5 µM)
